The values that follow come from article PMC11864945 (Frontiers in Pharmacology, 2025).

Usually Cmax stands for the maximum level reached in the sampled fluid or tissue. In general, Tmax refers to the time at which the peak concentration occurs. In general, AUC(0-t) refers to exposure summed from dosing to a finite time, without extrapolation to infinity. A high value points to high exposure. A word on the AUC(0-inf): it is the area under the concentration-time curve extrapolated to infinity. Higher therefore signals more exposure. As usually defined, the half-life is how long it takes for the measured level to halve. Low values mean rapid decline, high ones slow decline.

Where two headings read alike, the source gives them in different places.

For series [1] the following is noted: stock solution in DMF, −20°C.
Experimental: Individual stock solutions of PYR, PRA, FBT, FEN and OXF were prepared for standards and quality control samples in DMF at 1 mg/mL. IS stock solution was also prepared in DMF at 400 μg/mL. The mixed working solutions were obtained by mixing the stock solution in different volumes and then performing appropriate dilution in methanol: water (50:50, V/V). The IS working solution of 200 ng/mL was also prepared with DMF from the primary stock solution. […] The working solutions for the analytes and IS were stored at 4°C and brought to room temperature before use.
Stability experiments were conducted in working solutions of the analytes and IS for short term stability at 4°C and stock solutions for long term stability at −20°C, respectively. Peak area ratio responses (Analytes/IS) of stored solutions were compared with those of freshly prepared solutions. The acceptance criterion was ±10.0% deviation when comparing the values of fresh solutions.
Series [2] can be described thus: Stability of the analytes in beagle dog plasma (bench top, refrigerator, freeze–thaw, autosampler, short and long term storage). The format is physicochemical. Conditions: for Mean stability sample ±SD: n = 5.
Experimental: Stability experiments were conducted in working solutions of the analytes and IS for short term stability at 4°C and stock solutions for long term stability at −20°C, respectively. Peak area ratio responses (Analytes/IS) of stored solutions were compared with those of freshly prepared solutions. The acceptance criterion was ±10.0% deviation when comparing the values of fresh solutions. The stabilities of the analytes in beagle dog plasma were evaluated by analyzing five replicates at LQC and HQC levels. Types of stabilities were following as: bench top stability (room temperature), refrigerator stability (4°C), autosampler stability for processed samples (6°C), freeze–thaw stability (−80°C), short term stability (−20°C) and long term (–80°C) storage stability.
The conditions of series [3]: beagle, dog, in vivo.
Experimental: (§1) Adaptive feeding and observation were carried out for 7 days before the bioequivalence study. Physical examination, blood routine and blood biochemical tests were performed the day before the trial to ensure the health of the dogs. […] The subjects were orally administered a single dose of test or reference formuations with 100 mL of water with a washout period of 2 weeks. Blood samples were collected into heparinized tubes at 0.00 (pre–dose), 0.17, 0.33, 0.67, 1.00, 1.50, 2.00, 2.50, 3.00, 4.00, 5.00, 6.00, 7.00, 8.00, 9.00, 10.00, 11.00, 12.00, 14.00, 24.00 and 30.00 h after oral administration. […] The number of blood collections for drug analysis was 21 samples in each study period. The collected blood samples were centrifuged in a pre–cooled centrifuge at 2,150 g for 10 min, and the separated plasma was transferred to a clean centrifuge tube and frozen in a −80°C refrigerator until analysis.
(§2) The pharmacokinetic parameters for the analytes were evaluated by non–compartmental analysis using Phoenix WinNonlin software version 8.1 (Certara Corporation, Radnor, PA, United States). The maximum plasma concentration (Cmax), the area under the plasma concentration-time curve from time zero to the last sampling time (AUC0–30), the area under the plasma concentration-time curve from time zero to infinity (AUC0–inf), as the primary target, and their geometric mean ratios (test/reference) using log transformed data were assessed to determine whether the formulations were pharmacokinetically equivalent.
(§3) The study was conducted as an open label, balanced, randomized, crossover, two–treatment, two–period, two–sequence and single–dose design to compare the bioavailability of PYR, PRA, FBT, FEN and OXF between two products in 38 healthy beagle dogs. Each subject received a tablet from the test product (Self–developed preparation) and a tablet from reference product (Drontal® Plus Flavor) under fasting conditions with a washout period of 2 weeks.
The next series can be described thus: in vivo. Conditions: beagle, dog, po.
For series [4] the following is noted: 20 healthy beagle dogs, identical dose strength, ref Klausz et al., 2015, cited from earlier work.
The mark [5] stands for this setting: autosampler, 6°C, 55 h, processed plasma samples, HQC.
Where [6] appears, read: autosampler, 6°C, 55 h, processed plasma samples, LQC.
The mark [7] stands for this setting: freeze–thaw after 3rd cycle at −80°C, dog plasma, HQC.
[8] abbreviates: freeze–thaw after 3rd cycle at −80°C, dog plasma, LQC.
[9] abbreviates: long term, −80°C, 120 days, dog plasma, HQC.
The mark [10] stands for this setting: long term, −80°C, 120 days, dog plasma, LQC.
Where [11] appears, read: refrigerator, 4°C, 30 h, dog plasma, HQC.
Setting [12] is: refrigerator, 4°C, 30 h, dog plasma, LQC.
Where [13] appears, read: short term, −20°C, 48 h, dog plasma, HQC.
Setting [14] is: short term, −20°C, 48 h, dog plasma, LQC.

Experimental for in vivo: as §1, §2, §3

Turning to `[2H]C([2H])([2H])OC(=O)Nc1nc2ccc(Sc3ccccc3)cc2[nH]1` [IS, Fenbendazole–D3], the “Long–term stability of stock solution (time remained stable)” value in series [1] stood at 104 days.

As for `CN1CCCN=C1/C=C/c1cccs1` [Pyrantel, pyrantel], the Accuracy in series [2] (setting [5]) was 108.07%; in series [2] (setting [6]), 107.25%; in series [2] (bench top, room temperature, 8 h, dog plasma, HQC, % of nominal concentration), 90.68%; in series [2] (bench top, room temperature, 8 h, dog plasma, LQC, % of nominal concentration), 94.15%; in series [2] (setting [7]) it was 94.84%; in series [2] (setting [8]), 92.15%. Moreover, the Accuracy is 97.25% in series [2] (setting [9]); 88.57% in series [2] (setting [10]); 97.21% in series [2] (setting [11]); 97.18% in series [2] (setting [12]); 107.76% in series [2] (setting [13]); 100.41% in series [2] (setting [14]). For the same compound, the “Mean stability sample ±SD” value in series [2] (setting [5]) is recorded as 194.53 ± 3.27 ng/mL; in series [2] (setting [6]) it was 12.87 ± 0.28 ng/mL; in series [2] (bench top, room temperature, 8 h, dog plasma, HQC (added 180 ng/mL PYR/OXF, 675 PRA, 90 FBT, 450 FEN)), 163.22 ± 1.45 ng/mL; in series [2] (bench top, room temperature, 8 h, dog plasma, LQC (added 12 ng/mL PYR/OXF, 45 PRA, 6 FBT, 30 FEN)), 11.30 ± 0.66 ng/mL; in series [2] (setting [7]), 170.71 ± 4.98 ng/mL; in series [2] (setting [8]) it was 11.06 ± 0.55 ng/mL. Besides, the “Mean stability sample ±SD” value in series [2] (setting [9]) worked out at 175.05 ± 5.76 ng/mL; in series [2] (setting [10]), 10.63 ± 0.11 ng/mL; in series [2] (setting [11]), 174.99 ± 6.96 ng/mL; in series [2] (setting [12]) it was 11.66 ± 0.93 ng/mL; in series [2] (setting [13]), 193.96 ± 8.82 ng/mL; in series [2] (setting [14]), 12.05 ± 0.92 ng/mL. In addition, the “GMR (Test/Reference) of AUC0–30” value in series [3] is reported as 110.18%. Moreover, the “GMR (Test/Reference) of AUC0–inf” value in series [3] was 111.84%. Moreover, the “GMR (Test/Reference) of Cmax” value in series [3] stood at 112.68%. Further, the “AUC0–30” value in series [3] (po) amounted to 378.04 ± 102.58 ng·h/mL. Moreover, the “AUC0–inf” value in series [3] (po) worked out at 429.16 ± 117.30 ng·h/mL. Besides, the Cmax in series [3] (po) is reported as 69.17 ± 21.12 ng/mL; in series [4] (reference products), 81.1 ng/mL; in series [4] (test products), 78.5 ng/mL. Besides, the “Kel (elimination rate constant)” value in series [3] (po) came to 0.20 ± 0.08 h⁻¹. The Tmax is 2.87 ± 1.06 h in series [3] (po) and 3.08 ± 0.98 h in “in vivo” (Tmax). In addition, the “t1/2 (elimination half–life)” value in series [3] (po) turned out to be 4.87 ± 4.38 h. The same compound had an AUC(0-t) in the series “in vivo” (AUC0–30) of 423 ± 140 ng·h/mL. Moreover, the AUC(0-inf) in “in vivo” (AUC0–inf) worked out at 489 ± 186 ng·h/mL. The same compound gave a k el in the series “in vivo” (Kel (elimination rate constant)) of 5.28e-05 s⁻¹. Also, the half-life in “in vivo” (t1/2 (elimination half–life)) is 4.27 ± 2.03 h.
